Measurements taken from publication PMC2365101, “Anti-Inflammatory Activity of (Polyphenolic)-Sulfonates and Their Sodium Salts in Rodents” (Metal-Based Drugs, 1998).

Experiments:
[1] = tested on: TNFα release from IC-21 macrophages; assay: TNFα release from IC-21 macrophages induced by LPS (L929 bioassay); assay type: cell-based, mouse; settings: for TNFα release, Percent of LPS Control: 18 hours exposure to LPS, N=6
Text: (§1) Few reports in the literature indicate interaction at these receptor sites other than by peptides or antibodies. […] Blocking these receptors is desirable because the entire inflammation cascade of events is triggered by the early release of TNFa and IL-1. […] Radioisotopes were obtained from New England Nuclear [Dupont, Boston, MA] and substrates and co- factors were obtained from Sigma Chemical Co. [St. Louis, MO]. […] Cell lines were obtained from American Type Culture Collection [Rockville, MD]. In Vivo Tests Anti-inflammatory screen in mice: Male CF male mice weighing 28-32g obtained from Jackson Lab. [Bar Harbor, […]] were used to screen agents at 8 or 16 mg/kg intraperitoneal [I.P.] x 2 administered 3 hr and 30 min prior to administering the irritant, according to Winter's protocol. Evaluation of the induced edema was made by injecting 2% carrageenan in 0.9% saline into the plantar region of the foot. The opposite foot injected with 0.9% isotonic saline was used as a base line. […] Salmonella abortus equi [Lot # 69F4003] […] Drugs from 2 to 16 mg/kg, I.P. were administered 2 hr prior and 2 hr post-injection of the LPS and then subsequently for every 24 hr for the length ofthe animals' lives. Deaths were recorded every 12 hr and continued for 96 hr. […] In vitro TNFa andIL-1 Measurements and Cellular Regulation IC-21 mouse macrophages were maintained in RPMI-1640 + 10% FCS + P/S. After the cells had grown to confluency, E. coli LPS at 10 Ixg/ml was added to the medium. Agents were incubated at 12.5 to 100 µM final concentration for 18 hr. The medium (100 btl) was collected for TNFCt determinations. Interleukin-1 [IL-1] release was determined using P388D1 cells which were maintained in RPMI-1640 + 10% FCS + P/S. The L929 bioassay was used to quantitate the TNF and the IL-1 levels. The L929 mouse fibroblasts were grown in DMEM + 10% FCS + P/S to confluency in 96 well plates and incubated with 100 tl ofmedium from […] or P388D cells after 18 hr. The cells were stained with 0.2% crystal violet in 20% MeOH and read at 580 nm using a Molecular Devices scanner (SOFT-max program). High Affinity Binding to Receptors on L929-106 Cells Two laCi of 125I-TNFct (human recombinant, 30 mCi/tg New England Nuclear) or 125I-IL-1 (70-120[.t Ci/lxg,New England Nuclear) was added to confluency L929 cells for 90 min or 5 hr, respectively with 25, 50 and 100 tM of the test compounds 12]. The cells were washed repeatedly with isotonic saline, pH.7.2 and aliquots counted. Prostaglandin cylcooxygenase activity Mouse J774AI macrophages maintained in Dulbecco's modified Eagle's medium + 15% FCS + P/S. Cells (5 x 106) were incubated with agents (5 to 100 ].tM final concentration) and 3H-arachidonic acid (100 Ci/mol) for 60 min at 37C in a CO2 incubator. The reaction was terminated with 2N HCI, the mixture extracted 2 X with ether, and the organic layer evaporated.

[2] = target: human leukocyte elastase (RPMI 1788); assay: Elastase activity in human leukocytes RPMI 1788; assay type: biochemical
[3] = target: IC-21 macrophage elastase; assay: Elastase activity in IC-21 macrophages; assay type: biochemical, mouse; settings: 120 min
[4] = target: J774-A1 prostaglandin cyclooxygenase; assay: Prostaglandin cyclooxygenase activity in J774-A1 macrophages; assay type: cell-based, mouse; settings: 60 min; read-out: IC50 Cyclo-oxygenase J774-A1
Text: as §1

Row | SMILES | TNFα release, Percent of LPS Control ([1]; 5 μM) | TNFα release, Percent of LPS Control ([1]; 12.5 μM) | TNFα release, Percent of LPS Control ([1]; 25 μM) | TNFα release, Percent of LPS Control ([1]; 50 μM) | reduction of TNFα release ([1]; 50 μM, 18 hr) [%] | IC50 ([2]; 60 min) [µM] | IC50 ([2]; 120 min) [µM] | IC50 [3] [µM] | IC50 [4] [µM]
1 | COc1c2cc(S(=O)(=O)[O-])cc1Cc1cc(S(=O)(=O)[O-])cc(c1OC)Cc1cc(S(=O)(=O)[O-])cc(c1OC)Cc1cc(S(=O)(=O)[O-])cc(c1OC)Cc1cc(S(=O)(=O)[O-])cc(c1OC)Cc1cc(S(=O)(=O)[O-])cc(c1OC)C2.[Na+].[Na+].[Na+].[Na+].[Na+].[Na+] [Compound 6] | 118 + 7% of LPS Control | 102 + 5% of LPS Control | 86 + 6% of LPS Control | 62 + 4% of LPS Control | 38 | 275 | 162 | – | –
2 | CC(=O)Oc1c2cc(S(=O)(=O)[O-])cc1Cc1cc(S(=O)(=O)[O-])cc(c1OC(C)=O)Cc1cc(S(=O)(=O)[O-])cc(c1OC(C)=O)Cc1cc(S(=O)(=O)[O-])cc(c1OC(C)=O)Cc1cc(S(=O)(=O)[O-])cc(c1OC(C)=O)Cc1cc(S(=O)(=O)[O-])cc(c1OC(C)=O)Cc1cc(S(=O)(=O)[O-])cc(c1OC(C)=O)Cc1cc(S(=O)(=O)[O-])cc(c1OC(C)=O)C2.[Na+].[Na+].[Na+].[Na+].[Na+].[Na+].[Na+].[Na+] [Compound 8] | 73 + 4% of LPS Control | 66 + 4% of LPS Control | 44 + 3% of LPS Control | 53 +4% of LPS Control | – | – | – | 111 | 33.3
